Converted amounts (≈) assume the structure as drawn.
Legend:
[1] = physchem
[2] = Thermodynamic solubility of the compound; type: physicochemical; settings: read-out: Therm_solubility
[3] = Volume of distribution at steady state in monkey; type: ADME, organism-based, Macaca mulatta; settings: rhesus monkey, in vivo; read-out: Vdss
[4] = Oral bioavailability in mouse; type: ADME, organism-based; settings: in vivo
[5] = Oral bioavailability in rat; type: ADME, organism-based; settings: in vivo
[6] = Oral bioavailability in dog; type: ADME, organism-based, Canis lupus familiaris; settings: in vivo
[7] = Oral bioavailability in monkey; type: ADME, organism-based, Macaca mulatta; settings: rhesus monkey, in vivo
[8] = Solubility of the compound in PBS at pH 7.4; type: physicochemical
[9] = Solubility of the compound in FaSSIF at pH 6.4; type: physicochemical
[10] = Solubility of the compound in FeSSIF at pH 5.2; type: physicochemical
[11] = Volume of distribution at steady state in mouse; type: ADME, organism-based; settings: in vivo, read-out: Vdss
[12] = Volume of distribution at steady state in rat; type: ADME, organism-based; settings: in vivo, read-out: Vdss
[13] = Volume of distribution at steady state in dog; type: ADME, organism-based, Canis lupus familiaris; settings: in vivo, read-out: Vdss

SMILES	solubility kinetic [1]	also measured
COC1CN(C(=O)c2ccc3[nH]nc(Cc4ccc(-c5cnn(C)c5)cc4)c3c2)C1	170 µM (≈ 68.2 µg/mL)	–
Cn1cc(-c2ccc(Cc3n[nH]c4ccc(S(=O)(=O)NC5CC5)cc34)cc2)cn1	107 µM (≈ 43.6 µg/mL)	–
CNC(=O)c1ccc2[nH]nc(Cc3ccc4cnn(C)c4c3)c2c1	192 µM (≈ 61.3 µg/mL)	–
COC1CN(C(=O)c2ccc3[nH]nc(Cc4ccc5c(cnn5C)c4)c3c2)C1	> 200 µM	–
Cn1ncc2cc(Cc3n[nH]c4ccc(C(=O)N5CC[C@H](O)C5)cc34)ccc21	> 200 µM	–
Cn1cc(-c2ccc(Cc3n[nH]c4ccc(C(=O)N5CC(F)(F)C5)cc34)cc2)cn1	89 µM (≈ 36.3 µg/mL)	–
Cn1cc(-c2ccc(Cc3n[nH]c4ccc(C(=O)N5CC[C@@H](O)C5)cc34)cc2)cn1	181 µM (≈ 72.7 µg/mL)	–
Cn1cc(-c2ccc(Cc3n[nH]c4ccc(C(=O)N5CC[C@H](O)C5)cc34)cc2)cn1	200 µM (≈ 80.3 µg/mL)	–
Cn1cc(-c2ccc(Cc3n[nH]c4ccc(C(=O)N5CCCCC5)cc34)cc2)cn1	106 µM (≈ 42.3 µg/mL)	–
Cn1cc(-c2ccc(Cc3n[nH]c4ccc(C(=O)N5CC(O)C5)cc34)cc2)cn1	196 µM (≈ 75.9 µg/mL)	–
Cn1cnc(-c2ccc3[nH]nc(Cc4ccc(-c5cnn(C)c5)cc4)c3c2)c1	6 µM (≈ 2.21 µg/mL)	–
Cn1cc(-c2ccc(Cc3n[nH]c4ccc(C(=O)NC5CC5)cc34)cc2)cn1	76 µM (≈ 28.2 µg/mL)	–
CNC(=O)c1ccc2[nH]nc(Cc3ccc(-c4cnn(CC(C)(C)O)c4)cc3)c2c1	182 µM (≈ 73.4 µg/mL)	solubility thermodynamic [2]: 26 µg/mL (≈ 64.4 µM)

Second part, led by results:

solubility kinetic [1]	SMILES	also measured
153 µM (≈ 58.4 µg/mL)	Cn1cc(-c2ccc(Cc3n[nH]c4ccc(NS(C)(=O)=O)cc34)cc2)cn1	–
153 µM (≈ 57.1 µg/mL)	Cn1cc(-c2ccc(Cc3n[nH]c4ccc(N5CCOCC5)cc34)cc2)cn1	–
96 µM (≈ 35.4 µg/mL)	Cn1cc(-c2ccc(Cc3n[nH]c4ccc(-c5nccn5C)cc34)cc2)cn1	–
> 200 µM	CNC(=O)c1ccc2[nH]nc(CC(C)C)c2c1	–
170 µM (≈ 68.2 µg/mL)	Cn1cc(-c2ccc(Cc3n[nH]c4ccc(C(=O)N5CCOCC5)cc34)cc2)cn1	–
176 µM (≈ 57.3 µg/mL)	CNC(=O)c1ccc2[nH]nc(Cc3ccc(OC)c(OC)c3)c2c1	–
157 µM (≈ 62.1 µg/mL)	Cn1ncc2cc(Cc3n[nH]c4ccc(C(=O)N5CCC(F)(F)C5)cc34)ccc21	–
115 µM (≈ 39.7 µg/mL)	CC(=O)Nc1ccc2[nH]nc(Cc3ccc(-c4cnn(C)c4)cc3)c2c1	–
169 µM (≈ 58.4 µg/mL)	CNC(=O)c1ccc2[nH]nc(Cc3ccc(-c4cnn(C)c4)cc3)c2c1	solubility thermodynamic [2]: 6 µg/mL (≈ 17.4 µM)
147 µM (≈ 54.6 µg/mL)	Cn1cc(-c2ccc(Cc3n[nH]c4ccc(N5CCCC5=O)cc34)cc2)cn1	–
186 µM (≈ 74.5 µg/mL)	Cn1cc(-c2ccc(Cc3n[nH]c4ccc(C(=O)N5CCNCC5)cc34)cc2)cn1	–
> 200 µM	CNC(=O)c1ccc2[nH]nc(Cc3ccc4c(cnn4C)c3)c2c1	Vd [3]: 0.95 L/kg; bioavailability [4]: 50%; bioavailability [5]: 88%; bioavailability [6]: 85%; bioavailability [7]: 26%; solubility [8]: 6 µg/mL (≈ 18.8 µM); solubility [9]: 32 µg/mL (≈ 100 µM); solubility [10]: 59 µg/mL (≈ 185 µM); solubility thermodynamic [2]: 6 µg/mL (≈ 18.8 µM); Vd [11]: 0.69 L/kg; Vd [12]: 0.85 L/kg; Vd [13]: 1.8 L/kg
183 µM (≈ 71.1 µg/mL)	CC(=O)NCCNc1ccc2[nH]nc(Cc3ccc(-c4cnn(C)c4)cc3)c2c1	–
173 µM (≈ 57.3 µg/mL)	Cn1cc(-c2ccc(Cc3n[nH]c4ccc(C(N)=O)cc34)cc2)cn1	–
104 µM (≈ 43.8 µg/mL)	Cn1cc(-c2ccc(Cc3n[nH]c4ccc(C(=O)N5CCC(F)(F)C5)cc34)cc2)cn1	–
53 µM (≈ 20.2 µg/mL)	Cn1cc(-c2ccc(Cc3n[nH]c4ccc(-c5cc(N)ccn5)cc34)cc2)cn1	–
167 µM (≈ 46.7 µg/mL)	CNC(=O)c1ccc2[nH]nc(Cc3cccc(C)c3)c2c1	–

— ChEMBL document CHEMBL3774357, “Discovery of potent and selective CDK8 inhibitors from an HSP90 pharmacophore” (Bioorg Med Chem Lett, 2016)
